The text below walks through data of US4921953A, “Cephalosporin derivatives” (Taisho Pharmaceutical Co., Ltd., priority 1988, dated 1990).

One data set is described as follows: in vivo. To be noted: blood, rabbit, oral, 20 mg/kg suspended in 5% gum arabic, bioassay (Bacillus luteus S1101). The arrangement: species or system male Japanese native strain white rabbits. How it is done: Three male Japanese native strain white rabbits weighing 2.50 to 3.15 kg for each group were administered orally with the test compounds, and the change of the concentration of the compound in blood was measured.
Dosage of the test compound: 20 mg/kg (suspended in 5% gum arabic).
Quantitative method: Bioassy method (test bacterium: Bacillus luteus S1101).

Data set [1] relates to Staphylococcus epidermidis sp-al-1. As to the kind of experiment: antibacterial activity, agar plate dilution method (MIC). It counts as cell-based. As for the experimental part:
(§1) The antibacterial activity against various bacteria was measured by the agar plate dilution method (inoculum size: 10^6 cells/ml), and the results are shown in the following Table 1.

Data set [2] has as its system Entercococcus faecalis ATCC 8043. Described as above. It counts as cell-based. The settings on record: read-out: Minimum Inhibitory Concentration (MIC). How it is done:
as §1

The subject of another data set is Eschelichia coli A13. The description is as above. It counts as cell-based. To be noted: read-out: Minimum Inhibitory Concentration (MIC). How it is done:
as §1

In data set [3] the test system is Eschelichia coli NIHJ JC-2. The data set is described as above. It counts as cell-based. To be noted: read-out: Minimum Inhibitory Concentration (MIC). How it is done:
as §1

Data set [4] concerns Staphylococcus aureus K-1. The description is as above. It counts as cell-based. As for the experimental part: as §1
The test system of data set [5] is Staphylococcus aureus 209P-JC. The data set is described as above. It counts as cell-based. The settings on record: read-out: Minimum Inhibitory Concentration (MIC). How it is done:
as §1

The mark [6] stands for this setting: Staphylococcus epidermidis, SPAL1, read-out: Minimum Inhibitory Concentration (MIC).
The mark [7] stands for this setting: Staphylococcus aureus, K1, read-out: Minimum Inhibitory Concentration (MIC).
The mark [8] stands for this setting: SPAL1, Staphylococcus epidermidis sp-al-1, inoculum size: 10^6 cells/ml, read-out: Minimum Inhibitory Concentration (MIC).
[9] abbreviates: Entercococcus faecalis ATCC 8043, inoculum size: 10^6 cells/ml.
[10] abbreviates: Eschelichia coli A13, inoculum size: 10^6 cells/ml.
Where [11] appears, read: Eschelichia coli NIHJ JC-2, inoculum size: 10^6 cells/ml.
Where [12] appears, read: K1, Staphylococcus aureus K-1, inoculum size: 10^6 cells/ml, read-out: Minimum Inhibitory Concentration (MIC).
[13] abbreviates: Staphylococcus aureus 209P-JC, inoculum size: 10^6 cells/ml.

In brackets after ≈: the same amount, converted by molar mass. Counter-ions that a name gives are not always drawn. Like-named read-outs stand apart in the source and are kept apart here.

Regarding `N#CCSC1=C(C(=O)[O-])N2C(=O)[C@@H](NC(=O)/C(=N\O)c3csc(N)n3)[C@H]2SC1.[Na+]`, the concentration at 4 h in the data set “in vivo” (Four Hours after administration) amounted to 2500 ng/mL. The compound further displayed a concentration at 1 h in the data set “in vivo” (One Hour after administration) of 2500 ng/mL. For the same compound, the concentration at 2 h in the data set “in vivo” (Two Hours after administration) is 4000 ng/mL. The MIC in data set [1] (setting [6]) worked out at 0.78 µg/mL; in data set [2], 1.56 µg/mL; in the data set with Eschelichia coli A13, 1.56 µg/mL; in data set [3], 0.2 µg/mL; in data set [4] (setting [7]), 0.78 µg/mL; in data set [5] (Staphylococcus aureus, 209P) it was 0.2 µg/mL.

Take `Nc1nc(/C(=N/O)C(=O)N[C@@H]2C(=O)N3C(C(=O)O)=C(SCCF)CS[C@H]23)cs1` [B]: the MIC in data set [1] (setting [8]) was found to be 0.78 µg/mL (≈ 1.74 µM); in data set [2] (setting [9]), 25 µg/mL (≈ 55.9 µM); with Eschelichia coli A13 (setting [10]), 6.25 µg/mL (≈ 14 µM); in data set [3] (setting [11]), 0.39 µg/mL (≈ 0.872 µM); in data set [4] (setting [12]), 0.78 µg/mL (≈ 1.74 µM); in data set [5] (setting [13]), 0.39 µg/mL (≈ 0.872 µM).

For `C=CCSC1=C(C(=O)O)N2C(=O)[C@@H](NC(=O)/C(=N\O)c3csc(N)n3)[C@H]2SC1` [C], the MIC in data set [1] (setting [8]) turned out to be 0.39 µg/mL (≈ 0.883 µM); in data set [2], 12.5 µg/mL (≈ 28.3 µM); with Eschelichia coli A13, 6.25 µg/mL (≈ 14.2 µM); in data set [3] (setting [11]), 0.2 µg/mL (≈ 0.453 µM); in data set [4] (setting [7]), 6.25 µg/mL (≈ 14.2 µM); in data set [5] (setting [13]) it was 0.2 µg/mL (≈ 0.453 µM).

On to `CC1=C(C(=O)O)N2C(=O)[C@@H](NC(=O)[C@H](N)c3ccccc3)[C@H]2SC1` [D, Cephalexin, reference compound], for which the MIC in data set [1] (setting [6]) is 1.56 µg/mL (≈ 4.49 µM); in data set [2] it was 100 µg/mL (≈ 288 µM); in the data set on Eschelichia coli A13, over 100 µg/mL; in data set [3] it was 6.25 µg/mL (≈ 18 µM); in data set [4] (setting [7]), over 100 µg/mL; in data set [5] (Staphylococcus aureus, 209P), 0.78 µg/mL (≈ 2.25 µM).

`C=CC1=C(C(=O)O)N2C(=O)[C@@H](NC(=O)/C(=N\OCC(=O)O)c3csc(N)n3)[C@H]2SC1` [E, Cefixime sodium salt, reference compound]: the MIC in data set [1] (setting [8]) is 50 µg/mL; in data set [2] (setting [9]), over 100 µg/mL; with Eschelichia coli A13 (setting [10]), over 100 µg/mL; in data set [3], 0.39 µg/mL; in data set [4] (setting [12]), over 100 µg/mL; in data set [5] (Staphylococcus aureus, 209P), 12.5 µg/mL.
